Reference: US20110045593A1, “Transgenically mitigating the establishment and spread of transgenic algae in natural ecosystems by suppressing the activity of carbonic anhydrase” (priority 2009, published 2011)

Columns and labels:
[1] = test system: Nannochloropsis oculata CS-179; assay: Photosynthetic carbon dioxide fixation measured as oxygen evolution with an oxygen electrode, carbonic anhydrase suppressed by inhibitor; assay type: cell-based; conditions: 300 μM, incubated just prior to measurement
Protocol: Cultures were incubated with ethoxyzolamide just prior to measurement.
Measurements of O2 concentrations are performed using a Clark type O2 electrode (Pasco Scientific, Roseville, Calif., USA). 20 ml of cell suspension corresponding to 15 μg chlorophyll/ml are placed in the O2 electrode chamber, at relevant temperature. Cells are exposed to various light intensities and net O2 production is measured. Dark incubations are performed in air-tight vessels to follow light-independent O2 consumption.

[2] = test system: non-transgenic algal or cyanobacterial cells; assay: In vivo pds assay: culture in fluorochloridone solution; assay type: cell-based; conditions: 0.1 μM in standard algae or cyanobacteria culture media
Protocol: In vivo pds assay. Putative transformed algal or cyanobacterial cells were cultured in a solution of 0.1 μM fluorochloridone in standard algae or cyanobacteria culture media.

| Compound | photosynthetic carbon dioxide fixation (measured as oxygen evolution) ([1]; high CO2 concentration (FIG. 1A; more than 2%)) | photosynthetic carbon dioxide fixation (measured as oxygen evolution) ([1]; high CO2 concentration (FIG. 1A; more than 2%), listed as inhibitor) | photosynthetic carbon dioxide fixation (measured as oxygen evolution) ([1]; low CO2 concentration (FIG. 1B)) | photosynthetic carbon dioxide fixation (measured as oxygen evolution) ([1]; low CO2 concentration (FIG. 1B), listed as inhibitor) | killing of non-transgenic cells [2] |
| --- | --- | --- | --- | --- | --- |
| CCOc1ccc2nc(S(N)(=O)=O)sc2c1 [ethoxyzolamide, 6-ethoxy-2-benzothiazolesulfonamide] | no effect | no difference in photosynthesis | decreases photosynthetic carbon dioxide fixation | severely deficient in photosynthesis |  |
| O=C1C(Cl)C(CCl)CN1c1cccc(C(F)(F)F)c1 (centres unmarked) [fluorochloridone] |  |  |  |  | all non-transgenic cells are killed |
